Laboratory results published in patent publication US5098925A, “Spiro-dihydroisoindole compounds” (ICI Americas Inc., priority 1990, dated 1992).

Columns and labels:
[1] = test system: neuronal damage in the hippocampus; experiment: gerbil ischemic model (bilateral carotid occlusion, neuronal damage in the hippocampus); type: in vivo, Mongolian gerbils; settings: ip dose of 60 mg/kg
Procedure: Typically an animal is rendered ischemic, for example, for transient occlusion of the carotid artery. A test compound is then administered to said ischemic animal at or about the time of the ischemica event. The ability of the test compound to reduce or prevent neurological degeneration may then be assessed, for example, by sacrificing the animal, followed by conventional histological examination of suitable brain tissue. For example, the following is a description of a suitable test in vivo using the gerbil model.
When testing in vivo using the gerbil ischemic model, adult female Mongolian gerbils (50-70 g) are anesthetized with 2 to 3% halothane. The bilateral common carotid arteries at the neck are exposed and occluded with microaneurysm clips. After 10 min (unless specified), the clips are removed and the blood flow through the carotid arteries is restored and the skin is sutured. […] Gross behavioral observations along with motor activity are recorded for 2 hr on the first (24 hr) day following the occlusion. […]
Sections (7 micron) are evaluated from each brain. […] The average brain damage rating score for each group is recorded, and the damage scores of the drug treated group are compared to the vehicle-treated group using Wilcoxcon ranks sum test.

[2] = molecular target: phencyclidine (PCP) receptor of the NMDA receptor complex; experiment: [3H]-TCP binding (displacement of specific [3H]TCP binding); set-up: species or system Sprague-Dawley rats; settings: [3H]-TCP 2.5 nM; rat cortex/hippocampus synaptic membranes; 30 min, 37° C., pH 7.7; read-out: IC50 value, 50% inhibition of total specific [3H]TCP binding
Text: The actions of compounds of formula I as an antagonist at the phencyclidine (PCP) receptor of the NMDA receptor complex can be shown using known in vitro tests, for example that described in Vignon et al., Brain Research, 280, 194-197 (1983). Vignon et al. disclose that tritiated N-(1-[2-thienyl]cyclohexyl)-3,4-[^3 H]-piperidine (also abbreviated as [^3 H]-TCP) binds to PCP binding sites (e.g. in rat brains) more strongly than PCP itself. […] [^3 H]-TCP thus provides a useful tool for measuring the binding affinities of compounds which bind to PCP receptors such as the PCP site in the NMDA receptor complex.
Specifically when it is desired to measure the binding affinity of a compound of formula I, a source of (brain) NMDA receptors is generated by preparing neuronal synaptic membranes from adult Sprague-Dawley rats. In brief, freshly dissected cortices and hippocampi were homogenized in 0.32 M sucrose (100 mg/ml). […]
The procedure for [^3 H]-TCP binding is adapted from Vignon et al. (1983). […] Non-specific binding is determined with 100 μM MK-801, a […] well known and characterized in the art as set forth for example, in European Patent Application 0 230 370, published July 29, 1987. […] Radioactivity is measured by liquid scintillation counting. The specific activity of the [^3 H]TCP is used to convert the radioactivity measured to concentration [^3 H]TCP bound. […]

CN1Cc2ccccc2C12CCCc1sccc12 (stereo not shown) [Example 21, 2'-Methylspiro[4,5,6,7-tetrahydrobenzothiophene-4,1'-(1,3-dihydroisoindole)]]
neuroprotective effect [1]: significant neuroprotective effect
overt toxic effects [1]: without any overt toxic effects

c1ccc2c(c1)CNC21CCCc2sccc21 (stereo not shown) [Example 20, Spiro[4,5,6,7-tetrahydrobenzothiophene-4,1'-(1,3-dihydroisoindole)]]
IC50 [2]: 0.6 µM

COc1cccc2c1CCC21NCc2ccccc21 (stereo not shown) [Example 18, 4-Methoxyspiro[indan-1,1'-(1,3-dihydroisoindole)]]
IC50 [2]: 5 µM
